# Experimental data from publication PMC12670118 (Chemical Science, 2025).
# Legend:
# MDA-MB-231 cells = test: MTT antiproliferative assay, MDA-MB-231; format: cell-based, human; conditions: read-out: Cytotoxicity IC50, MDA-MB-231, 72 h
# MCF-7 cells = test: MTT antiproliferative assay, MCF-7; format: cell-based, human; conditions: read-out: Cytotoxicity IC50, MCF-7, 72 h
# 4T1 cells = test: MTT antiproliferative assay, 4T1; format: cell-based, mouse; conditions: read-out: Cytotoxicity IC50, 4T1, 72 h
# MCF-10A cells = test: MTT antiproliferative assay, MCF-10A; format: cell-based, human; conditions: read-out: Cytotoxicity IC50, 72 h
# HeLa cells = test: MTT antiproliferative assay, HeLa; format: cell-based; conditions: read-out: Cytotoxicity IC50, 72 h
# p-STING = test: Immunohistochemistry of primary tumor tissue; format: in vivo, mouse; conditions: 5 mg kg^−1 intratumoral, IHC
compound,measurement,setting,value
N.N.[Cl][Pt][Cl] [Cisplatin],IC50,MDA-MB-231 cells,20.2 ± 5.6 µM
same,IC50,MCF-7 cells,18.3 ± 5.74 µM
same,IC50,4T1 cells,25.5 ± 2.52 µM
same,IC50,MCF-10A cells,15.5 ± 4.33 µM
same,IC50,HeLa cells,8.35 ± 0.86 µM
same,Expression of p-STING on primary tumors,p-STING,can't activate the STING pathway in vivo
